PMC11714206, “Massively Parallel Screening of Toll/Interleukin‐1 Receptor (TIR)‐Derived Peptides Reveals Multiple Toll‐Like Receptors (TLRs)‐Targeting Immunomodulatory Peptides” (Advanced Science, 2024)

Target: T1, MyD88^TIR (Homo sapiens, UniProt Q99836)
T1 construct: MyD88 (residues 148–296); 6xHis; made in house; host or cells: E. coli BL21 (DE3)
Experiment: T‐Surf phage library (P8 and P3) selection against MyD88^TIR, four rounds, NGS read counts
Type: binding
Details: for P3_MyD88 Rank (after) / P3_MyD88 Rank (before): P3 library; for P8_MyD88 Rank (after) / P8_MyD88 Rank (before): P8 library; for Population: P8_MyD88 pool: P8 T-Surf phage library, 4th round of selection against MyD88 TIR, share of NGS reads
Outline: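 Read counts come from NGS of phage pools after the fourth selection round, barcoded by 20-cycle PCR and filtered for quality ≥30. Each round: phage incubated 1 h at RT on immobilised TIR protein (5 µg mL^−1, BSA-blocked), washed, HCl-eluted and amplified in E. coli TG1.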

[1] = selection against MyD88, rank by count after grouping
[2] = selection against MyD88, rank by count before grouping
[3] = P8_MyD88: rank by count after grouping
[4] = P8_MyD88: rank by count before grouping
[5] = selection against MyD88 TIR, rank by count after grouping
[6] = selection against MyD88 TIR, rank by count before grouping
[7] = 4R selection against MyD88, rank after grouping
[8] = 4R selection against MyD88, rank before grouping
[9] = selection against MyD88, rank after grouping
[10] = selection against MyD88, rank before grouping
[11] = P8_MyD88: rank by NGS read count after grouping
[12] = P8_MyD88: rank by NGS read count before grouping

T1 sequence (Q99836 148-296): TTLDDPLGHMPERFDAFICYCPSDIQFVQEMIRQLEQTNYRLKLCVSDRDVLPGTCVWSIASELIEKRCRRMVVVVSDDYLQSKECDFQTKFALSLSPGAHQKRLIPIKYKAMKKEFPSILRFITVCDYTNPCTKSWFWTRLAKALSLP

Sequence: LAANEIRKEMKTLATI
- P3_MyD88 Rank (after) [1]: 680
- P3_MyD88 Rank (before) [2]: 2326

Sequence: LADALERYGIMFIIDK
- Rank (after) [3]: 184
- Rank (before) [4]: 236

Sequence: LAIIGLIGSILWALK
- P8_MyD88 Rank (after) [5]: 210
- P8_MyD88 Rank (before) [6]: 492

Sequence: LEANDSLFWDRLIRMIE
- P8_MyD88 Rank (after) [7]: 635
- P8_MyD88 Rank (before) [8]: 3374

Sequence: LEANDSLFWDRLLYSLHVTE
- Rank (after) [3]: 179
- Rank (before) [4]: 214

Sequence: LEANDSLFWDRLYY
- Rank (after) [3]: 403
- Rank (before) [4]: 1189

Sequence: LEWGEPIVLEKQRSVT
- P3_MyD88 Rank (after) [9]: 563
- P3_MyD88 Rank (before) [10]: 2328

Sequence: LEYRWIDWEYFVGLED
- Rank (after) [11]: 886
- Rank (before) [12]: 3357

Sequence: LFWANLRAALQGDLPY
- Rank (after) [3]: 130
- Rank (before) [4]: 143
- Population: 0.0116%

Sequence: LFWDRLIYAVSDVASA
- Rank (after) [3]: 111
- Rank (before) [4]: 119
- Population: 0.02%

Sequence: LFWDRLLYSLHVTE
- P8_MyD88 Rank (after) [9]: 569
- P8_MyD88 Rank (before) [10]: 3208

Sequence: LGFNWMDWEYFVGIEG
- P8_MyD88 Rank (after) [7]: 671
- P8_MyD88 Rank (before) [8]: 3216

Sequence: LGTHEISKEMKIFATI
- P3_MyD88 Rank (after) [9]: 571
- P3_MyD88 Rank (before) [10]: 2323

Sequence: LGYDWIVWAYFVGIED
- Rank (after) [11]: 894
- Rank (before) [12]: 3219

Sequence: LGYHCHDREYFVGIED
- P8_MyD88 Rank (after) [1]: 717
- P8_MyD88 Rank (before) [2]: 3311

Sequence: LGYHCMDWEYFVGIED
- Rank (after) [3]: 390
- Rank (before) [4]: 3228

Sequence: LGYHGIDWVYFGGIED
- P8_MyD88 Rank (after) [9]: 565
- P8_MyD88 Rank (before) [10]: 3316

Sequence: LGYHGLIGSILWALK
- P8_MyD88 Rank (after) [7]: 618
- P8_MyD88 Rank (before) [8]: 3317

Sequence: LGYHLIVWEYFVGIED
- P8_MyD88 Rank (after) [1]: 744
- P8_MyD88 Rank (before) [2]: 3227

Sequence: LGYHRIDWEYCVGIED
- Rank (after) [11]: 1020
- Rank (before) [12]: 3318

Sequence: LGYHWEYWVYFVGIED
- Rank (after) [11]: 1000
- Rank (before) [12]: 3237

Sequence: LGYHWFDWVYFVGIED
- P8_MyD88 Rank (after) [9]: 523
- P8_MyD88 Rank (before) [10]: 3329

Sequence: LGYHWIAWECFVGIED
- Rank (after) [3]: 426
- Rank (before) [4]: 3247

Sequence: LGYHWIDLGYFVGIED
- P8_MyD88 Rank (after) [1]: 767
- P8_MyD88 Rank (before) [2]: 3249

Sequence: LGYHWIDWAYFVGIEE
- P8_MyD88 Rank (after) [5]: 242
- P8_MyD88 Rank (before) [6]: 3250

Sequence: LGYHWIDWAYSVGIED
- P8_MyD88 Rank (after) [1]: 750
- P8_MyD88 Rank (before) [2]: 3251

Sequence: LGYHWIDWEDFVGIEN
- Rank (after) [11]: 919
- Rank (before) [12]: 3280

Sequence: LGYHWIDWENLVGFED
- P8_MyD88 Rank (after) [7]: 630
- P8_MyD88 Rank (before) [8]: 3283

Sequence: LGYHWIDWEYFEGIAD
- Rank (after) [11]: 928
- Rank (before) [12]: 3268

Sequence: LGYHWIDWEYFV
- Population: 0.0274%

Sequence: LGYHWIDWEYFVALK
- P8_MyD88 Rank (after) [5]: 235
- P8_MyD88 Rank (before) [6]: 599

Sequence: LGYHWIDWEYFVGIEDPIT
- P8_MyD88 Rank (after) [7]: 660
- P8_MyD88 Rank (before) [8]: 3261

Sequence: LGYHWIDWEYFVGIK
- Rank (after) [11]: 874
- Rank (before) [12]: 3264

Sequence: LGYHWIDWEYFVGSED
- Population: 0.00655%

Sequence: LGYHWIDWEYYVGIEN
- Rank (after) [11]: 992
- Rank (before) [12]: 3275

Sequence: LGYHWIDWEYYVGTED
- Rank (after) [3]: 440
- Rank (before) [4]: 3301

Sequence: LGYHWIDWSILWALK
- P8_MyD88 Rank (after) [5]: 231
- P8_MyD88 Rank (before) [6]: 409

Sequence: LGYHWIEWEDFVVIED
- Rank (after) [11]: 872
- Rank (before) [12]: 3293

Sequence: LGYHWIGWEYCVGIED
- P8_MyD88 Rank (after) [9]: 482
- P8_MyD88 Rank (before) [10]: 3246

Sequence: LGYHWIVWEYFVGIDD
- Rank (after) [3]: 421
- Rank (before) [4]: 3244

Sequence: LGYHWIVWEYLVGIKD
- P8_MyD88 Rank (after) [7]: 652
- P8_MyD88 Rank (before) [8]: 3245

Sequence: LGYHWKEWEHFVGIED
- Rank (after) [11]: 1028
- Rank (before) [12]: 3310

Sequence: LGYHWLDWEYFVSIED
- Rank (after) [3]: 451
- Rank (before) [4]: 3240

Sequence: LGYHWLNWESFVGIED
- P8_MyD88 Rank (after) [9]: 547
- P8_MyD88 Rank (before) [10]: 3345

Sequence: LGYHWMEWEYVVGIED
- Rank (after) [11]: 960
- Rank (before) [12]: 3299

Sequence: LGYHWMGWEYFVGIED
- P8_MyD88 Rank (after) [9]: 560
- P8_MyD88 Rank (before) [10]: 3298

Sequence: LGYHWNDGEYFVGIKD
- P8_MyD88 Rank (after) [9]: 489
- P8_MyD88 Rank (before) [10]: 3306

Sequence: LGYHWNDREYFLDIED
- P8_MyD88 Rank (after) [9]: 536
- P8_MyD88 Rank (before) [10]: 3307

Sequence: LGYHWRDWEYFVGLED
- P8_MyD88 Rank (after) [5]: 280
- P8_MyD88 Rank (before) [6]: 3302

Sequence: LGYHWTDWEYFVGIEA
- Rank (after) [3]: 429
- Rank (before) [4]: 3305
